Measured values from ChEMBL document CHEMBL1201862, “PubChem BioAssay data set” (2004).
“And” between values parts separate entries of the source, which are not always exact repeats. Identical values can stand only once. The source made the active and inactive calls.

How the values were obtained:
Cytochrome P450 2D6 = Cytochrome P450 2D6 (Homo sapiens, UniProt P10635);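 further: CYP2D6 member of a cytochrome P450 panel assay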
Cytochrome P450 2C9 = Cytochrome P450 2C9 (Homo sapiens, UniProt P11712)
Cytochrome P450 1A2 = biological target: T1, Cytochrome P450 1A2 (Homo sapiens, UniProt P05177);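 further: PubChem cytochrome P450 panel assay, CYP1A2 panel member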
T1 sequence (P05177 whole entry): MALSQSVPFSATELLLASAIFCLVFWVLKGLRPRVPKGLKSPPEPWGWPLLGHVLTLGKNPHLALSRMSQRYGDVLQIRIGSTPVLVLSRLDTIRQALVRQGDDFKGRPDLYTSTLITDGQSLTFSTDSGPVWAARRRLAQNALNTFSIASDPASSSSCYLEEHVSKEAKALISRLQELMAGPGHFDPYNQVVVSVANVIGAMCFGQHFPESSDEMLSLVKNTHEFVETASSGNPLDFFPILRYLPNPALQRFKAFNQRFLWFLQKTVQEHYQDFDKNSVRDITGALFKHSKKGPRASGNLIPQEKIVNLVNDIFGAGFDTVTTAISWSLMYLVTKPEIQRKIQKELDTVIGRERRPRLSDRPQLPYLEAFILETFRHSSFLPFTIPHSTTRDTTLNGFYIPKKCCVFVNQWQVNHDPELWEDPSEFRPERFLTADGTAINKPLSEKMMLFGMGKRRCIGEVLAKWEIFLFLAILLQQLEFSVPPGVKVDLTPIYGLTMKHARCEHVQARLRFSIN

[1] = biological target: T2, Corticotropin-releasing factor receptor 2/Corticotropin-releasing factor-binding protein (Homo sapiens, UniProt P24387+Q13324); experiment: activators of CRF receptor 2 with binding protein – uHTS hits, confirmation (AID 602473); assay type: functional; settings: read-out: EC50_Mean
T2 sequence (Q13324 whole entry): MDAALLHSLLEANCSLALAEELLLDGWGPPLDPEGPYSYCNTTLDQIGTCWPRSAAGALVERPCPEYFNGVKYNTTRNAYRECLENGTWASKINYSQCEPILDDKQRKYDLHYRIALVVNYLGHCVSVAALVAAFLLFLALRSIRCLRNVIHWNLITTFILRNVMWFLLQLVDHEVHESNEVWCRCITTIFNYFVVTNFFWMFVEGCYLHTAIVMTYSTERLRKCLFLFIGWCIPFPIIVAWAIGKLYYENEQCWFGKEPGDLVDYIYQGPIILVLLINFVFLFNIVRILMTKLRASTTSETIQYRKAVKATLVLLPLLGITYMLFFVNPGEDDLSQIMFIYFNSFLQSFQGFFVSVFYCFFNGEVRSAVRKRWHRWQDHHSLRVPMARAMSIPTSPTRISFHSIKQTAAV
T2 sequence (P24387 whole entry): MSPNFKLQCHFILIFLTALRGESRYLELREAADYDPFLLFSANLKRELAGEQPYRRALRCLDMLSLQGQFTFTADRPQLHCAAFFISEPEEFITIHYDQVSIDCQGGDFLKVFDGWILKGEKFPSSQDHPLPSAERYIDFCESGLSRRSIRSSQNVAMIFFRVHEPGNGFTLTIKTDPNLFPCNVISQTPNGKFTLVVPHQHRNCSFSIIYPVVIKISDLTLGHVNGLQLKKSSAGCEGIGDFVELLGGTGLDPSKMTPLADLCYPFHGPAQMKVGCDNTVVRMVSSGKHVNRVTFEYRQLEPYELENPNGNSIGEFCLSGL

[2] = biological target: T2, Corticotropin-releasing factor receptor 2/Corticotropin-releasing factor-binding protein; experiment: Dose Response confirmation of uHTS hits for small molecule antagonists of the CRF-binding protein and CRF-R2 receptor complex.; assay type: functional; settings: read-out: IC50_Mean
[3] = Luminescence Cell-Based Dose Confirmation HTS to Identify Activators of 5'UTR Stem-Loop Driven Alpha-Synuclein mRNA Translation in H4 Neuroglioblastoma Cells. [Related pubchem assays: 1829 (Project Summary), 1814 (Primary HTS)]; assay type: functional
[4] = Luminescence Cell-Based Dose Response HTS to Identify Activators of Luciferase Translation or Activity in H4 […] Cells. [Related pubchem assays: 1829 (Project Summary), 1814 (Primary HTS)]; assay type: functional
H4 = experiment: Luminescence Cell-Based Dose Response HTS to Identify Activators of 5'UTR Stem-Loop Driven Prion Protein mRNA Translation in H4 Neuroglioblastoma Cells. [Related pubchem assays: 1829 (Project Summary), 1814 (Primary HTS)]; assay type: functional; settings: Homo sapiens
[5] = loss of viability in HepG2 cells – cell-based, CellTiter-Glo, cherry-picked, cytotoxicity control for Shn3 inhibitor project, dose response (AID 624134); assay type: functional
[6] = reduction of Shn3 3'UTR-driven luciferase in osteoblasts – cell-based, Clone20 osteoblasts, firefly luciferase, cherry-picked, dose response (AID 624132); assay type: functional;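 further: firefly luciferase luminescence from reporter carrying the Shn3 3'UTR in osteoblasts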
[7] = non-specific 3'UTR reporter inhibition in Clone20-Shn3RL – cell-based, Renilla luciferase, cherry-picked, counter-screen for Shn3 inhibitor project, dose response (AID 624133); assay type: functional
Cytochrome P450 2C19 = Cytochrome P450 2C19 (Homo sapiens, UniProt P33261); experiment: Cytochrome panel assay with activity outcomes. Panel member name: p450-cyp2c19 Compounds with AC50 equal or less than 10 uM are considered active; assay type: functional; settings: read-out: AC50
Cytochrome P450 3A4 = Cytochrome P450 3A4 (Homo sapiens, UniProt P08684);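 further: CYP3A4 tested as one member of a cytochrome P450 panel screen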
[8] = biological target: T3, Heat shock factor protein 1 (Mus musculus, UniProt P38532); experiment: enhancement of HSF1-driven luciferase signal – cell-based, NIH3T3, luminescence, dose retest, confirmation (AID 435004); assay type: functional;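 further: stress induced by proteasome inhibitor MG132 added 30 min after compound; luciferase reporter driven by HSF1 response element in NIH3T3 cells; actives raise luminescence as potentiators of the MG132 stress response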
T3 sequence (P38532 whole entry): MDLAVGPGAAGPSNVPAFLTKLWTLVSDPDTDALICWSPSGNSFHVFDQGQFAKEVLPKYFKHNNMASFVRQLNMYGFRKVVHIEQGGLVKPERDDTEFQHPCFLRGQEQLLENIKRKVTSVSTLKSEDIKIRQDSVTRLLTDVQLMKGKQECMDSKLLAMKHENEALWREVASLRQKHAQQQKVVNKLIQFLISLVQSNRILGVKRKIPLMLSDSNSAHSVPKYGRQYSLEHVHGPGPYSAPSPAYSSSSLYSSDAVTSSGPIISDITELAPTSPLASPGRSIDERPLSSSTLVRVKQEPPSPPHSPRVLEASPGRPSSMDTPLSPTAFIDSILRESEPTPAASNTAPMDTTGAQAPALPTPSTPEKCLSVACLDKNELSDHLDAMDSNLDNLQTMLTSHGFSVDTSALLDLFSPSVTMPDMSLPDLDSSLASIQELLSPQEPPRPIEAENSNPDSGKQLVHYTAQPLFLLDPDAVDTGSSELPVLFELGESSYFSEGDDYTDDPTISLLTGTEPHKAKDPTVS

Chain of Cytochrome P450 2C9 (P11712 whole entry): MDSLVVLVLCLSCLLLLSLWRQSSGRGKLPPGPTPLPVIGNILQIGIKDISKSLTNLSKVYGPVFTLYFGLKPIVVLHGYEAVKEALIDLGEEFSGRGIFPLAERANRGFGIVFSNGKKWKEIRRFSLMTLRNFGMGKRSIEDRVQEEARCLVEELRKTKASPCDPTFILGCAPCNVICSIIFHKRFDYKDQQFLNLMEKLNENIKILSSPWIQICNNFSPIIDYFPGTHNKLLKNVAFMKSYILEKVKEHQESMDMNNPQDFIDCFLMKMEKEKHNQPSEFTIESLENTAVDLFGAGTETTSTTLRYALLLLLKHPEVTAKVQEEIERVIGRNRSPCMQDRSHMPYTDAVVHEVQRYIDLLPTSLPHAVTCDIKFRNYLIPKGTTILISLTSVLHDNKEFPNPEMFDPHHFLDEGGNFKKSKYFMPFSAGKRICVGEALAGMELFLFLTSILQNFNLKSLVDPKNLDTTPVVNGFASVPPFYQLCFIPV
Chain of Cytochrome P450 2D6 (P10635 whole entry): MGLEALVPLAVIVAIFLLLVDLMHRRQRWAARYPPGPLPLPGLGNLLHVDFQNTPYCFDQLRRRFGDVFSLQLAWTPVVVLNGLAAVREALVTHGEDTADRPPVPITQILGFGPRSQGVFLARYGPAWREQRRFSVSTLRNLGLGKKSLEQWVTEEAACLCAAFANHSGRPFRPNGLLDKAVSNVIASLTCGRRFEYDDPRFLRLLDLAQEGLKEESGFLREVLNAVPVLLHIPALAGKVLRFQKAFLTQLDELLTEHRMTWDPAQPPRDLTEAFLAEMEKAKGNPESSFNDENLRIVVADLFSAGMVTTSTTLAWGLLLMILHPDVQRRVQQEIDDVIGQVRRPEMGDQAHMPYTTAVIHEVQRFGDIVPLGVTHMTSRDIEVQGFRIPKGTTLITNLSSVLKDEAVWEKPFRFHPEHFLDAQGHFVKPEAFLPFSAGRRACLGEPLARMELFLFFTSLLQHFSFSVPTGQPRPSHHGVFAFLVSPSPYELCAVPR
Chain of Cytochrome P450 3A4 (P08684 whole entry): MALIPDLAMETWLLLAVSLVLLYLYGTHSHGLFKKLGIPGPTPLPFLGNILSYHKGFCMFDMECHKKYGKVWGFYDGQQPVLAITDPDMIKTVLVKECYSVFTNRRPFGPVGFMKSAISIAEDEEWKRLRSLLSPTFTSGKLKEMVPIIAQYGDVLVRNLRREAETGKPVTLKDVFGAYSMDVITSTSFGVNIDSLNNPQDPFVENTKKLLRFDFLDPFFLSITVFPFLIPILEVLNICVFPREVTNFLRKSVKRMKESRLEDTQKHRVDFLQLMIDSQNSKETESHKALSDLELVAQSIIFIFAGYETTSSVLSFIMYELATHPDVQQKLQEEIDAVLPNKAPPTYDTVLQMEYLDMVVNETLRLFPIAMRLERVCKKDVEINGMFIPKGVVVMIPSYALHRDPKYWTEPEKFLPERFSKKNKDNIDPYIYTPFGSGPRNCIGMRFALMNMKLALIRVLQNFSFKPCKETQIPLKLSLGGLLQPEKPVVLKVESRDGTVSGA
Chain of Cytochrome P450 2C19 (P33261 whole entry): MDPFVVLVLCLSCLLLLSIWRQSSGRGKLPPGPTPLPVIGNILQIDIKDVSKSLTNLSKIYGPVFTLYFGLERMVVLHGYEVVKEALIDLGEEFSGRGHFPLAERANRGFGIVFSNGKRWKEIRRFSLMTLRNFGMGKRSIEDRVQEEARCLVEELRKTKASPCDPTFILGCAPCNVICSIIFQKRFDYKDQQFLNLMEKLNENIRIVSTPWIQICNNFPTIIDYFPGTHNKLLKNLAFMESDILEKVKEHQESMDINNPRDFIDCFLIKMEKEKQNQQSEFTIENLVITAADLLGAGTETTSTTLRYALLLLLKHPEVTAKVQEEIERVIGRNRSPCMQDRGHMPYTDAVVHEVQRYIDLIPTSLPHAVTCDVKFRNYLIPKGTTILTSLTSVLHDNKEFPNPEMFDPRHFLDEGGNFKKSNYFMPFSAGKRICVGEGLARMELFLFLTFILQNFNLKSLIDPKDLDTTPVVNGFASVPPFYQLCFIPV

O=C(CCNS(=O)(=O)c1ccc2c(c1)CCC(=O)N2)NCc1ccc2c(c1)OCO2
AC50 (Cytochrome P450 2D6): 22.4 µM (inconclusive) | AC50 (Cytochrome P450 2C9): 39.8 µM (inconclusive)

COc1cccc(NS(=O)(=O)c2ccc3ncc(C(=O)NCCN4CCOCC4)c(O)c3c2)c1
AC50 (Cytochrome P450 2D6): 28.2 µM (inconclusive) | AC50 (Cytochrome P450 1A2): 12.6 µM (inconclusive)

COc1cccc(CN2CC(C(=O)NCc3ccc(Cl)s3)CCC2=O)c1 (stereo unspecified)
EC50 [1]: > 53 µM (inactive) | IC50 [2]: > 47.1 µM (inactive)

Cc1ccc(Nc2ncnc3sc(C)c(C)c23)cc1
EC50 [3]: 18.1 µM (active) | EC50 [4]: 19.5 µM (active) | EC50 (H4): 26.3 µM (active)

O=S(=O)(c1ccccc1C(F)(F)F)N1CCN(c2ncnc3sccc23)CC1
AC50 [5]: 8.89 µM (active) | AC50 [6]: 3.44 µM (active) | AC50 [7]: 9.4 µM (active)

O=C(c1cc2nc(-c3ccc(F)cc3)cc(C(F)(F)F)n2n1)N1CCOCC1
EC50 [1]: > 53 µM (inactive) | IC50 [2]: > 47.1 µM (inactive)

Brc1ccccc1OCCCCn1cnc2ccccc21
EC50 [3]: > 120 µM (not active) | EC50 [4]: 16.9 µM (active) | EC50 (H4): 13 µM (inconclusive)

Cc1nc(-c2ccc(Cl)cc2)sc1C1(C)CC(c2ccccc2)=NO1 (stereo unspecified)
EC50 [3]: 7.51 µM (active) | EC50 [4]: 9.8 µM (active) | EC50 (H4): 31.3 µM (active)

COc1ccc(-n2c(=O)cnc3cnc(Oc4cccc(Cl)c4)nc32)cc1
AC50 (Cytochrome P450 2D6): 39.8 µM (inconclusive) | AC50 (Cytochrome P450 2C19): 15.8 µM (inconclusive)

CCOC(=O)C1=NN(c2ccccc2)C2=NC(C)=C(C(=O)OC)C(c3cccs3)N12 (stereo unspecified)
EC50 [1]: > 53 µM (inactive) | IC50 [2]: > 47.1 µM (inactive)

CCOC(=O)O[C@]1(C(=O)COC(=O)CC)CC[C@@H]2[C@@H]3CCC4=CC(=O)C=C[C@@]4(C)[C@H]3[C@H](O)C[C@]21C
AC50 (Cytochrome P450 2D6): 12.6 µM (inconclusive) | AC50 (Cytochrome P450 2C9): 12.6 µM (inconclusive) | AC50 (Cytochrome P450 3A4): 12.6 µM (inconclusive)

COc1ccc(CN2CCC(CO)(CCOc3ccccc3)CC2)cc1C
EC50 [1]: > 53 µM (inactive) | IC50 [2]: > 47.1 µM (inactive)

COc1ccc2nc(O)c(CN(CCc3ccccc3)C(C)=O)cc2c1
AC50 (Cytochrome P450 2D6): 14.1 µM (inconclusive) | AC50 (Cytochrome P450 2C9): 14.1 µM (inconclusive) | AC50 (Cytochrome P450 1A2): 14.1 µM (inconclusive)

COc1ccc(CCn2c(-c3ccccc3)nc3c(c(=O)c4ccccc4n3C)c2=O)cc1
EC50 [3]: > 120 µM (not active) | EC50 [4]: 24.2 µM (inconclusive) | EC50 (H4): > 120 µM (not active)

O=C1NCC2(CCN(CCc3ccccc3)CC2)O1 [FENSPIRIDE]
AC50 (Cytochrome P450 2D6): 12.6 µM (inconclusive) and 39.8 µM (inconclusive)

N#Cc1cn(-c2ccccc2)nc1C(=O)c1ccccc1
EC50 [3]: > 120 µM (not active) | EC50 [4]: > 120 µM (not active) | EC50 (H4): > 120 µM (not active)

O=[N+]([O-])c1ccc(S(=O)(=O)Cc2ccccc2)c([N+](=O)[O-])c1
AC50 (Cytochrome P450 2D6): 2.51 µM (inconclusive) | AC50 (Cytochrome P450 1A2): 5.01 µM (inconclusive)

Cc1ccc(NC(=O)c2oc3ccccc3c2COC(C)C)cc1S(=O)(=O)N1CCOCC1
AC50 [5]: > 70 µM (inactive) | AC50 [6]: 14.4 µM (active)

Cc1ccccc1Nc1nc(N)nc(COC(=O)c2cccc(S(=O)(=O)N(C)c3ccccc3)c2)n1
EC50 [1]: > 53 µM (inactive) | IC50 [2]: > 47.1 µM (inactive)

O=C(CC12CCC(CC1)C2)NCc1ccc2c(c1)OCO2
EC50 [8]: > 260 µM (inactive)
